# Values of other authors in patent US9687554B2, “Finasteride and minoxidil polymeric nanoparticle its process of preparation, aqueous suspension containing the same, pharmaceutical composition, and its use” (Biolab Sanus Farmaceutica Ltda., priority 2012, dated 2017).
# Test system: men aged 18 to 41 years
# Conditions: 1 mg daily, end of five years, 1553 men; placebo 75%
smiles,measurement,value
CC(C)(C)NC(=O)[C@H]1CC[C@H]2[C@@H]3CC[C@H]4NC(=O)C=C[C@]4(C)[C@H]3CC[C@]12C [finasteride],Patients who developed baldness,10%
